# Measurements taken from patent US5506340A, “Tumor necrosis factor inhibitors” (Centecor, Inc., priority 1994, dated 1996).
# No end group written: not given here.
# Target: T1, human TNFα (Homo sapiens, UniProt P01375)
# T1 construct: purchased Biosource, Camarillo, Calif
# Assay: p55 receptor/IgG fusion protein binding assay (inhibition of TNFα capture by p55-Ig coated plate)
# Conditions: TNFα 25 ng/ml preincubated with peptide, read-out: IC50 (concentration necessary to inhibit TNFα by 50%), inhibition of binding of TNFα to p55TNFr-IgG chimeric construct
# Protocol: This assay was designed to identify peptides which bind to human TNFα and thereby prevent the capture of the TNFα by a microtiter plate coated with p55-Ig fusion protein. A constant concentration of human TNFα is preincubated with the test peptide and then incubated on the p55-Ig coated microtiter wells. Bound TNFα is detected using a specific antisera and an alkaline phosphatase-conjugated probe.
# A 96-well, U-bottom polyvinylchloride microtiter plate was coated with 50 μl/well of p55-Ig fusion protein at 5 μg/ml in 0.01M sodium phosphate, 0.15M sodium chloride (PBS) by incubation overnight at 4° C. or 2 hours at 37° C. […] 29, 1993 which is incorporated herein by reference. The plate was washed three times with 0.05% Tween-20 in PBS, then blocked, by adding 150 μl/well of assay buffer (10 mM N-2-hydroxyethylpiperazine-N'-[…] (HEPES) pH 7.2, containing 0.1% porcine gelatin, 0.1% Tween-80, and 0.01% sodium azide) and continuing incubation for 1 hour at 37° C. or at 4° C. for 1-7 days.
# Lyophilized peptides to be tested were weighed in tared 12×75 mm polystyrene tubes and reconstituted to a concentration of 1.2 mM with assay buffer. Each suspension was sonicated in a water bath for 1-5 minutes and vortexed 15-30 seconds to disperse large particles. Serial dilutions of each peptide suspension were prepared using assay buffer in a 96-well polystyrene microtiter plate. Additional wells received Fab fragment of the mouse/human monoclonal anti-human TNFα antibody cA2 (positive control) or assay buffer (negative control). […] The polystyrene dilution plate was then sealed and incubated 1 hour at room temperature on an orbital mixer set at moderate speed.
# Following the sample preincubation, blocker was discarded from the p55-Ig coated plate and blotted dry. Aliquots (50 μl) of each peptide or control were transferred into duplicate wells on the p55-Ig coated plate which was then sealed and incubated 1 hour at 37° C. Duplicate wells containing only assay buffer were included as a plate blank. After incubation the p55-Ig plate was washed three times with 0.05% Tween-20 in PBS.
# All incubations were for 1 hour at 37° C. and after each incubation the plate was washed three times with 0.05% Tween-20 in PBS. Fifty microliters of alkaline phosphatase substrate solution (alkaline buffer (Sigma, St. Louis, Mo.) diluted 1:500 in deionized water plus one 5 mg tablet of p-nitrophenyl phosphate (Sigma, St. Louis, Mo.) per 5 ml of diluted buffer) was added to all wells and incubation continued for 20 minutes at room temperature. Color development was stopped by adding to all wells 50 μl of 3N sodium hydroxide. The optical density (OD) at 405 nm was measured on a microtiter plate reader (Molecular Devices Vmax plate reader), with the plate blank wells subtracted as background. The activity of each peptide was then expressed as the percent inhibition of TNFα capture by the p55-Ig plate, relative to the amount of TNFα captured in wells containing only assay buffer (negative control), as follows:
# The inhibition of binding of TNFα to p55TNFr-IgG chimeric construct was performed as described above using several embodiments of the invention. The peptides were tested to determine the concentration necessary to inhibit TNFα by 50% (IC50) relative to TNFα activity in the absence of the peptide.
# T1 sequence (P01375 77-233 limits assumed): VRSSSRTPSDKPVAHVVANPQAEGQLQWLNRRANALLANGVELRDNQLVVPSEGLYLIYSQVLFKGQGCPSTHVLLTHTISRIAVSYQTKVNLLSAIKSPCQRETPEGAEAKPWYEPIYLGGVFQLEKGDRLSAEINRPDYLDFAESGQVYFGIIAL
row,Substance,IC50
1,MVYPGLQEPWLHSMY-NH2,850 µM
2,PGLQEPWLHSMYHGA-NH2,600 µM

# These reach a lower IC50. Values come first.
row,IC50,Substance
1,480 µM,WLHSMYHGAAFQLTQ-NH2
2,370 µM,YLAHEVQLFSSQYPF-NH2
3,310 µM,QEPWLHSMYHGAAFQ-NH2
